The target in experiment [1] is T1, human GCN2 full-length protein (Homo sapiens, UniProt Q9P2K8).
T1 construct: purchased Carna Biosciences, Inc
The experiment can be described thus: GCN2 enzyme inhibition assay (LanthaScreen TR-FRET). The conditions noted are these: GCN2 enzyme inhibitory activity at compound concentration of 3 μM; Table 3-1; read-out: inhibitory rate. The format is biochemical. The method in brief:
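Full-length human GCN2 was preincubated with compound for 1 hr at room temperature, then reacted for 1 hr with substrate and ATP added from a 570 μM ATP / 390 nM substrate solution (stock concentrations). Phosphorylation was detected by TR-FRET with a terbium-labelled anti-eIF2alpha antibody after 1 hr, with enzyme-free wells as control.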
For orientation: TR-FRET usually uses a lanthanide donor and a delayed reading to cut background.

Experiment [2] concerns osteosarcoma cell line U-2-OS. The experiment can be described thus: In vitro cell proliferation inhibition assay (CellTiter-Glo, low amino acid media). The conditions noted are these: Homo sapiens, U2OS, 72 h, cell proliferation inhibitory rate, McCoy's 5A low amino acid media, Table 4-1. The experiment is classed as cell-based. The procedure, abridged: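 Cells seeded at 1000 per well in McCoy's 5A low amino acid medium (25% amino acid content), then exposed to compound for 72 h at 37° C., 5% CO2. ATP measured by CellTiter-Glo luminescence. Inhibition (%) at 100 nM calculated relative to pre-treatment and untreated control wells.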
A general note: In ATP-based viability assays light output follows the ATP content of the culture.

Experiment [3] relates to human acute lymphoblastic leukemia cell line CCRF-CEM. In words: In vitro tumor proliferation inhibitory assay with combined use of asparaginase. The conditions noted are these: compound concentration 100 nM, L-asparaginase 0.1 U/mL, 72 hr, read-out: in vitro cell proliferation inhibitory rate (%). The experiment is classed as cell-based. The protocol:
A cell suspension (40 μL) (5000 cells/well) of human acute lymphoblastic leukemia cell line CCRF-CEM obtained from ATCC (American Type Culture Collection) was seeded on a 384 well plate using RPMI1640 medium. The seeded cells were incubated (37° C., 5% CO2) overnight to 24 hr at the longest. L-asparaginase (Sigma-Aldrich Co. LLC.) was dissolved in PBS and treated in each well to a final concentration of 0.1 U/mL. Furthermore, each test compound was dissolved (10 mM) in DMSO, delivered to wells by using TECAN HP D300 (TECAN), and the plate was incubated for 72 hr (37° C., 5% CO2). A well without addition of compound was treated similarly as a control group. […] After incubation for 10 min, cell proliferation inhibitory rate was measured by the amount of ATP which is a cell viability marker.
Luminescence of cells showing ATP amount was measured using ARVO MX (PerkinElmer). Based on the luminescence value of the control group without addition of test compound solution and the treatment group with addition of test compound, the cell proliferation inhibitory rate (%) of the test compound at a compound concentration of 100 nM was calculated by the following formula and the results thereof are shown in Table 7. Inhibitory rate (%)=(1−(luminescence value of treatment group)÷(luminescence value of control group))×100

The test system of experiment [4] is human acute lymphoblastic leukemia cells CCRF-CEM. In words: In vivo tumor proliferation inhibitory assay with combined use of asparaginase (CCRF-CEM xenograft). The conditions noted are these: CCRF-CEM xenograft in SCID mouse; for in vivo tumor proliferation inhibitory rate (%), GCN2 inhibitor: GCN2 inhibitor alone. The text has this: One million human acute lymphoblastic leukemia cells CCRF-CEM obtained from ATCC (American Type Culture Collection) were suspended in Matrigel solution (Corning) and implanted subcutaneously into 6-week-old female SCID mouse (CLEA Japan, Inc.) by injection. The mice in which the tumor engrafted to a size of about 200 mm^3 tumor volume after transplantation were selected and 5 mice per group were used for the experiment. A 0.5% methylcellulose suspension of the compound was orally administered twice per day for 9 days. Each compound was administered twice per day and the dose was 10 mg/kg for Example 14 and Example 7, and 6 mg/kg for Example 4. L-asparaginase (Kyowa Hakko Kogyo Co., Ltd.) was subcutaneously administered once per day at a dose of 1000 U/kg. Tumor diameter was measured one day before start of the administration and day 9 of the administration, and the tumor volume was calculated by the formula 1. tumor volume=major axis×minor axis×minor axis×(½) Formula 1
Tumor proliferation inhibitory rate (%) was calculated by the formula 2. tumor proliferation inhibitory rate (%)=(1−(T9−T0)/(C9−C0))×100 Formula 2 T9: average tumor volume of test drug administration group on day 9 of administration, T0: average tumor volume of test drug administration group one day before start of administration, C9: average tumor volume of control group on day 9 of administration, C0: average tumor volume of control group one day before start of administration

Each structure is given as a SMILES string.

T1 sequence (Q9P2K8 whole entry): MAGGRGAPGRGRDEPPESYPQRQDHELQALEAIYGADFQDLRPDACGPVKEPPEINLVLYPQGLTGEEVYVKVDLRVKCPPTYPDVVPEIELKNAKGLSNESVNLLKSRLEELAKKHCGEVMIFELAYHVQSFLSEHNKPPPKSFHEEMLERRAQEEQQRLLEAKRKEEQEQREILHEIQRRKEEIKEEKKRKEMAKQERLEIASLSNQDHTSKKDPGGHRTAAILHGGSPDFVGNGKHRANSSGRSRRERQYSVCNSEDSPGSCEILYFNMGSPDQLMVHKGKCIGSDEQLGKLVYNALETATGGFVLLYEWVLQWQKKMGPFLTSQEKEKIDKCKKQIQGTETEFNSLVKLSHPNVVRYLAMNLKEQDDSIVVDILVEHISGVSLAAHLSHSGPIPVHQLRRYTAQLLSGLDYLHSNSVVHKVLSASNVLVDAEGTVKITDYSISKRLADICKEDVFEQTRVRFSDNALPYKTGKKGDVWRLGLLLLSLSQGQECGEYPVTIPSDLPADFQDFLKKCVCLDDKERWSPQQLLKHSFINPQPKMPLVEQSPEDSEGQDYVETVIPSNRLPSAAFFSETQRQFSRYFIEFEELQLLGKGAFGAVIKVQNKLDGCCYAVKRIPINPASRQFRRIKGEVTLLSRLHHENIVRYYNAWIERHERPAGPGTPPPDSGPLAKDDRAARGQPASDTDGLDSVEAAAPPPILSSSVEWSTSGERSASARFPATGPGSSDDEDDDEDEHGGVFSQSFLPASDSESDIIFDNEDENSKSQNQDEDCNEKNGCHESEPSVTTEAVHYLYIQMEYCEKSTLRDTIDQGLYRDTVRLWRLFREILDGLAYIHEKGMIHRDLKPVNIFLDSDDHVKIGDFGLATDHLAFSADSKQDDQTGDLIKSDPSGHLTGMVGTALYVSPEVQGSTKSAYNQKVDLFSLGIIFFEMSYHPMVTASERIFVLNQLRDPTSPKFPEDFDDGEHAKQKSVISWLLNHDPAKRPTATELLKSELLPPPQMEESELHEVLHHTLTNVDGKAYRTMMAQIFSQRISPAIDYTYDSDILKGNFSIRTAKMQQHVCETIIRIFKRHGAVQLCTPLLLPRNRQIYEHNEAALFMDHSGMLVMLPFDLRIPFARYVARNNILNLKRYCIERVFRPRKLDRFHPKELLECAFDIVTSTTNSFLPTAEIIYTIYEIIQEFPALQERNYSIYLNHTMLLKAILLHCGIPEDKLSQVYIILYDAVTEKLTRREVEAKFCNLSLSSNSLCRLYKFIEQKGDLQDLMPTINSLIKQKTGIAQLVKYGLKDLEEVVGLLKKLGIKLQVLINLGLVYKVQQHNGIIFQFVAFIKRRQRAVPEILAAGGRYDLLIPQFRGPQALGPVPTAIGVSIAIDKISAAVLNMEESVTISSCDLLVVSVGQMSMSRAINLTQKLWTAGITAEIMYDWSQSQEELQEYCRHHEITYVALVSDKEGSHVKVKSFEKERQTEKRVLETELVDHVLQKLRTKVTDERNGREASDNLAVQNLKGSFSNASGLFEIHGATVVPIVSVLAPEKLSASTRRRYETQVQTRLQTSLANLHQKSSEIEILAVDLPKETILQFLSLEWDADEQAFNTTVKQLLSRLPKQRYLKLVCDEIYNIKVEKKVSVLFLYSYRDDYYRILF

For the compound `Nc1ncc(C#Cc2c(F)ccc(NS(=O)(=O)c3cc(Cl)cc(CO)c3Cl)c2F)cn1` [Example 4, N-(3-((2-aminopyrimidin-5-yl)ethynyl)-2,4-difluorophenyl)-2,5-dichloro-3-(hydroxymethyl)benzenesulfonamide], in experiment [1], the inhibition at 3 µM was 100%. Moreover, the inhibition at 0.1 µM in experiment [2] turned out to be 90%; in experiment [3], 89%. Also, the “in vivo tumor proliferation inhibitory rate (%), GCN2 inhibitor” value in experiment [4] (6 mg/kg oral twice per day for 9 days) turned out to be 2%. In addition, in experiment [4] (compound 6 mg/kg oral twice per day for 9 days combined with L-asparaginase 1000 U/kg s.c. once per day), the “in vivo tumor proliferation inhibitory rate (%), combined use” value was determined as 60%.
On to `COc1ncc(Cl)cc1S(=O)(=O)Nc1ccc(F)c(C#Cc2cnc(N)nc2)c1F` [Example 7, N-(3-((2-aminopyrimidin-5-yl)ethynyl)-2,4-difluorophenyl)-5-chloro-2-methoxypyridine-3-sulfonamide], for which the inhibition at 3 µM in experiment [1] was found to be 100%. Also, the inhibition at 0.1 µM was found to be 96% in experiment [2] and 90% in experiment [3]. Further, the “in vivo tumor proliferation inhibitory rate (%), GCN2 inhibitor” value in experiment [4] (10 mg/kg oral twice per day for 9 days) is listed as 7%. Also, the “in vivo tumor proliferation inhibitory rate (%), combined use” value in experiment [4] (compound 10 mg/kg oral twice per day for 9 days combined with L-asparaginase 1000 U/kg s.c. once per day) was 65%.

The record behind these values is patent US10696651B2, “Heterocyclic compound” (Takeda Pharmaceutical Company Limited, priority 2016, dated 2020).
